Converted amounts (≈) assume the structure as drawn.
System: Mtb strains INH-R1, INH-R2, RIF-R1, RIF-R2, FQ-R1
Assay: microbe, parasite or virus in culture
Assay type: cell-based
Settings: Mycobacterium tuberculosis; read-out: MIC against resistant isolates

`CCOC(=O)c1c(NC(=O)c2c(F)c(F)c(F)c(F)c2F)sc2c1CCN(CC)C2` [4{3,3,0}, ethyl 6-ethyl-2-(perfluorobenzamido)-4,5,6,7-tetrahydrothieno[2,3-c]pyridine-3-carboxylate] was tested, and the MIC was 0.2 to 0.44 µM (≈ 0.0897 to 0.197 µg/mL).
